The conditions of series [1]: rcm bond, 15-membered ring, Hoveyda-Grubbs II, DCE, 80.0 °C.
Series [2] relates to HCV genotype 1b (Con1) replicon in HUH-7 cells. Put plainly: HCV replicon luciferase reporter assay, genotype 1b. It is filed as cell-based. To be noted: Hepatitis C virus, 72 h, genotype 1b replicon, 3 days incubation, read-out: LE_1b (EC50, range). In a few lines:
(§1)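 Twenty-point, threefold compound titrations (0.5% DMSO) were incubated 3 days at 37 °C with 3.0×10^3 HUH-7 cells/well in 4% FCS. The cells stably carried luciferase replicons: genotype 1b Con1 (S1179I) or 1a H77 (NS3 P1496L, NS5A S2204I). Renilla signal was read after 2 h with 7.5 μM EnduRen, and EC50 was taken from a four-parameter logistic fit. Cytotoxicity (CC50) was measured by Cell Titer-Blue, 8 h.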
(A replicon is a self-replicating genome or part of one, used to study replication in cells.)

For series [3], the system named is HCV genotype 1a (H77 strain) replicon in HUH-7 cells. Description: HCV replicon luciferase reporter assay, genotype 1a. The class given is cell-based. As to conditions: Hepatitis C virus, 72 h, genotype 1a replicon, 3 days incubation, read-out: LE_1a (EC50, range). An outline of the steps:
as §1

Read-outs that look alike come from different tables or passages of the source.

The molecule `COC[C@@H]1CC(C)CC/C=C\[C@@H]2C[C@@]2(C(=O)NS(=O)(=O)C2(C)CC2)NC(=O)[C@@H]2C[C@@H](O)CN2C(=O)[C@H]1NC(=O)OC(C)(C)C` (stereo partly shown) yielded a ring closure, isolated yield in series [1] (from C=CCCC(C)C[C@@H](COC)[C@H](NC(=O)OC(C)(C)C)C(=O)N1C[C@H](O)C[C@H]1C(=O)N[C@]1(C(=O)NS(=O)(=O)C2(C)CC2)C[C@H]1C=C, 7.5 mM) of 76%.

In series [1] (from tert-butyl (2S,3R)-1-(((2S,4R)-2-(((1R,2S)-1-(((1-(fluoromethyl)cyclopropyl)sulfonyl)carbamoyl)-2-vinylcyclopropyl)carbamoyl)-4-hydroxypyrrolidin-1-yl)-3-(methoxymethyl)-5-methyl-1-oxonon-8-en-2-yl)carbamate, 5.0 mM), `COC[C@@H]1CC(C)CC/C=C\[C@@H]2C[C@@]2(C(=O)NS(=O)(=O)C2(CF)CC2)NC(=O)[C@@H]2C[C@@H](O)CN2C(=O)[C@H]1NC(=O)OC(C)(C)C` (stereo partly shown) returned a ring closure, isolated yield of 45%.

In series [1] (from C=CCCC(C)C[C@@H](COC)[C@H](NC(=O)OC(C)(C)C)C(=O)N1C[C@H](O)C[C@H]1C(=O)N[C@]1(C(=O)NS(=O)(=O)C2CC2)C[C@H]1C=C, 9.2 mM, 4.0 h), `COC[C@@H]1CC(C)CC/C=C\[C@@H]2C[C@@]2(C(=O)NS(=O)(=O)C2CC2)NC(=O)[C@@H]2C[C@@H](O)CN2C(=O)[C@H]1NC(=O)OC(C)(C)C` (stereo partly shown) showed a ring closure, isolated yield of 71%.

Molecule `COC[C@@H]1CCCC/C=C\[C@@H]2C[C@@]2(C(=O)NS(=O)(=O)C2(C)CC2)NC(=O)[C@@H]2C[C@@H](O)CN2C(=O)[C@H]1NC(=O)OC(C)(C)C` had a ring closure, isolated yield in series [1] (from C=CCCCC[C@@H](COC)[C@H](NC(=O)OC(C)(C)C)C(=O)N1C[C@H](O)C[C@H]1C(=O)N[C@]1(C(=O)NS(=O)(=O)C2(C)CC2)C[C@H]1C=C, 24.4 mM, 2.0 h) of 55%.

Regarding `COC[C@@H]1CCCC/C=C\[C@@H]2C[C@@]2(C(=O)NS(=O)(=O)C2CC2)NC(=O)[C@@H]2C[C@@H](O)CN2C(=O)[C@H]1NC(=O)OC(C)(C)C`, the ring closure, isolated yield in series [1] (from C=CCCCC[C@@H](COC)[C@H](NC(=O)OC(C)(C)C)C(=O)N1C[C@H](O)C[C@H]1C(=O)N[C@]1(C(=O)NS(=O)(=O)C2CC2)C[C@H]1C=C, 10.8 mM, 2.0 h) was 52%.

Turning to `COC[C@@H]1C[C@@H](C)CC/C=C\[C@@H]2C[C@@]2(C(=O)NS(=O)(=O)C2CC2)NC(=O)[C@@H]2C[C@@H](Oc3nc4cc(OC)ccc4nc3C(F)(F)F)CN2C(=O)[C@H]1NC(=O)OC(C)(C)C(F)(F)F` [Compound 1042, 1,1,1-trifluoro-2-methylpropan-2-yl ((2R,6S,7R,9S,13aS,14aR,16aS,Z)-14a-((cyclopropylsulfonyl)carbamoyl)-2-((7-methoxy-3-(trifluoromethyl)quinoxalin-2-yl)oxy)-7-(methoxymethyl)-9-methyl-5,16-dioxo-1,2,3,5,6,7,8,9,10,11,13a,14,14a,15,16,16a-hexadecahydrocyclopropa[e]pyrrolo[1,2-a][1,4]diazacyclopentadecin-6-yl)carbamate], the EC50 (as a rule, the concentration giving half of the maximal effect) lay within 1.01 to 5 nM in series [2] and 5.01 to 35 nM in series [3].

The record behind these values is US9580463B2 (BRISTOL-MYERS SQUIBB COMPANY, priority 2013, dated 2017).
